Literature values in article PMC3433420 (PLoS ONE, 2012).
Where two headings read alike, the source gives them in different places.

Molecular target: SH2 and PTB domains
Conditions: cited from earlier work
Excerpt: Supplement pone.0044471.s022.xlsx, sheet "Most recent PM interactions" | column: Kd || Supplement pone.0044471.s022.xlsx, sheet "All original PM interactions" | column: Kd

[1] = Protein ABL2, most recent PM interactions, ref Jones et al. 2006 / Kaushansky et al. Mol Biosys 2008 / Kaushansky et al. Chem and Biol 2008
[2] = Protein RASA1-N, most recent PM interactions, ref Jones et al. 2006 / Kaushansky et al. Mol Biosys 2008 / Kaushansky et al. Chem and Biol 2008
[3] = Protein SHC1-PTB, most recent PM interactions, ref Jones et al. 2006 / Kaushansky et al. Mol Biosys 2008 / Kaushansky et al. Chem and Biol 2008
[4] = Protein SHC2-PTB, most recent PM interactions, ref Jones et al. 2006 / Kaushansky et al. Mol Biosys 2008 / Kaushansky et al. Chem and Biol 2008
[5] = Protein SYK-NC, most recent PM interactions, ref Jones et al. 2006 / Kaushansky et al. Mol Biosys 2008 / Kaushansky et al. Chem and Biol 2008
[6] = Protein PIK3R1-NC, most recent PM interactions, ref Jones et al. 2006 / Kaushansky et al. Mol Biosys 2008 / Kaushansky et al. Chem and Biol 2008
[7] = Protein PIK3R2-N, most recent PM interactions, ref Jones et al. 2006 / Kaushansky et al. Mol Biosys 2008 / Kaushansky et al. Chem and Biol 2008
[8] = Protein PIK3R2-NC, most recent PM interactions, ref Jones et al. 2006 / Kaushansky et al. Mol Biosys 2008 / Kaushansky et al. Chem and Biol 2008
[9] = Protein PIK3R3-N, most recent PM interactions, ref Jones et al. 2006 / Kaushansky et al. Mol Biosys 2008 / Kaushansky et al. Chem and Biol 2008
[10] = Protein PIK3R3-NC, most recent PM interactions, ref Jones et al. 2006 / Kaushansky et al. Mol Biosys 2008 / Kaushansky et al. Chem and Biol 2008
[11] = Protein VAV2, most recent PM interactions, ref Jones et al. 2006 / Kaushansky et al. Mol Biosys 2008 / Kaushansky et al. Chem and Biol 2008
[12] = Protein SHB, most recent PM interactions, ref Jones et al. 2006 / Kaushansky et al. Mol Biosys 2008 / Kaushansky et al. Chem and Biol 2008
[13] = Protein YES1, most recent PM interactions, ref Jones et al. 2006 / Kaushansky et al. Mol Biosys 2008 / Kaushansky et al. Chem and Biol 2008
[14] = Protein BLK, most recent PM interactions, ref Jones et al. 2006 / Kaushansky et al. Mol Biosys 2008 / Kaushansky et al. Chem and Biol 2008
[15] = Protein RASA1-N, original PM interactions, ref Jones et al. 2006 / Kaushansky et al. Chem and Biol 2008
[16] = Protein CRK, most recent PM interactions, ref Jones et al. 2006 / Kaushansky et al. Mol Biosys 2008 / Kaushansky et al. Chem and Biol 2008

HQISLDNPDpYQQDFFPKd [ErbB1 1172]
Kd [1]: 490 nM | Kd [2]: 1140 nM | Kd [3]: 40 nM | Kd [4]: 1310 nM | Kd [5]: 1280 nM

HSTAVGNPEpYLNTVQPTd [ErbB1 1138]
Kd [1]: 120 nM | Kd (Protein GRB2, most recent PM interactions, ref Jones et al. 2006 / Kaushansky et al. Mol Biosys 2008 / Kaushansky et al. Chem and Biol 2008): 420 nM | Kd (Protein ITK, most recent PM interactions, ref Jones et al. 2006 / Kaushansky et al. Mol Biosys 2008 / Kaushansky et al. Chem and Biol 2008): 1760 nM | Kd (Protein NCK2, most recent PM interactions, ref Jones et al. 2006 / Kaushansky et al. Mol Biosys 2008 / Kaushansky et al. Chem and Biol 2008): 330 nM | Kd [6]: 1570 nM | Kd [7]: 760 nM | Kd [8]: 860 nM | Kd [9]: 840 nM | Kd [10]: 1690 nM | Kd [2]: 390 nM | Kd [3]: 170 nM | Kd [11]: 370 nM | Kd (Protein ZAP70-NC, most recent PM interactions, ref Jones et al. 2006 / Kaushansky et al. Mol Biosys 2008 / Kaushansky et al. Chem and Biol 2008): 1140 nM

IKEDSFLQRpYSSDPTGAd [ErbB1 1069]
Kd [12]: 860 nM | Kd [13]: 300 nM

KGSTAENAEpYLRVAPQSd [ErbB1 1197]
Kd [1]: 210 nM | Kd [10]: 1110 nM | Kd [3]: 320 nM

KLLGAEEKEpYHAEGGKVd [ErbB1 869]
Kd [1]: 1080 nM | Kd [14]: 1710 nM

KQLLpYSEAKTPId [ErbB3 pY868, N-terminally rhodamine-labeled 13-mer phosphopeptide]
Kd (Protein ABL2, original PM interactions, ref Jones et al. 2006 / Kaushansky et al. Chem and Biol 2008): 70 nM | Kd (Protein BCAR3, original PM interactions, ref Jones et al. 2006 / Kaushansky et al. Chem and Biol 2008): 1780 nM | Kd (Protein CRKL, original PM interactions, ref Jones et al. 2006 / Kaushansky et al. Chem and Biol 2008): 1760 nM | Kd (Protein NCK2, original PM interactions, ref Jones et al. 2006 / Kaushansky et al. Chem and Biol 2008): 2000 nM | Kd (Protein PIK3R3-NC, original PM interactions, ref Jones et al. 2006 / Kaushansky et al. Chem and Biol 2008): 2000 nM | Kd [15]: 950 nM | Kd (Protein SHC1-PTB, original PM interactions, ref Jones et al. 2006 / Kaushansky et al. Chem and Biol 2008): 2000 nM | Kd (Protein SYK-NC, original PM interactions, ref Jones et al. 2006 / Kaushansky et al. Chem and Biol 2008): 920 nM

LGSGAFGTVpYKGLWIPEd [ErbB1 727]
Kd (Protein SRC, most recent PM interactions, ref Kaushansky et al. Mol Biosys 2008): 580 nM | Kd (Protein YES1, most recent PM interactions, ref Kaushansky et al. Mol Biosys 2008): 540 nM

LGYEpYMDVGSDLd [ErbB3 pY1224, N-terminally rhodamine-labeled 13-mer phosphopeptide]
Kd (Protein PLCG2-NC, original PM interactions, ref Jones et al. 2006 / Kaushansky et al. Chem and Biol 2008): 2000 nM | Kd [15]: 2000 nM | Kd (Protein RASA1-NC, original PM interactions, ref Jones et al. 2006 / Kaushansky et al. Chem and Biol 2008): 2000 nM | Kd (Protein SLA, original PM interactions, ref Jones et al. 2006 / Kaushansky et al. Chem and Biol 2008): 2000 nM | Kd (protein ABL2, ref Jones et al. 2006 / Kaushansky et al. Chem and Biol 2008): 1130 nM | Kd (protein PIK3R3-NC, ref Jones et al. 2006 / Kaushansky et al. Chem and Biol 2008): 1510 nM

LHRIpYTHQSDVWd [ErbB1 pY891, N-terminally rhodamine-labeled 13-mer phosphopeptide]
Kd (protein HSH2D, ref Kaushansky et al. Mol Biosys 2008): 1130 nM | Kd (protein TNS4, ref Kaushansky et al. Mol Biosys 2008): 300 nM

LPPDDKQLLpYSEAKTPI [ErbB3 868]
Kd (Protein ABL2, most recent PM interactions, ref Jones et al. 2006 / Kaushansky et al. Chem and Biol 2008): 70 nM | Kd (Protein BCAR3, most recent PM interactions, ref Jones et al. 2006 / Kaushansky et al. Chem and Biol 2008): 1780 nM | Kd (Protein CRKL, most recent PM interactions, ref Jones et al. 2006 / Kaushansky et al. Chem and Biol 2008): 1760 nM | Kd (Protein RASA1-N, most recent PM interactions, ref Jones et al. 2006 / Kaushansky et al. Chem and Biol 2008): 950 nM | Kd (Protein SYK-NC, most recent PM interactions, ref Jones et al. 2006 / Kaushansky et al. Chem and Biol 2008): 920 nM

MDDVVDADEpYLIPQQGFd [ErbB1 1016]
Kd [1]: 280 nM | Kd [14]: 660 nM | Kd [16]: 470 nM | Kd (Protein CRKL, most recent PM interactions, ref Jones et al. 2006 / Kaushansky et al. Mol Biosys 2008 / Kaushansky et al. Chem and Biol 2008): 1000 nM | Kd (Protein NCK1, most recent PM interactions, ref Jones et al. 2006 / Kaushansky et al. Mol Biosys 2008 / Kaushansky et al. Chem and Biol 2008): 1000 nM | Kd (Protein PIK3R1-C, most recent PM interactions, ref Jones et al. 2006 / Kaushansky et al. Mol Biosys 2008 / Kaushansky et al. Chem and Biol 2008): 870 nM | Kd (Protein PIK3R1-N, most recent PM interactions, ref Jones et al. 2006 / Kaushansky et al. Mol Biosys 2008 / Kaushansky et al. Chem and Biol 2008): 900 nM | Kd [6]: 180 nM | Kd [7]: 420 nM | Kd [8]: 350 nM | Kd (Protein PIK3R3-C, most recent PM interactions, ref Jones et al. 2006 / Kaushansky et al. Mol Biosys 2008 / Kaushansky et al. Chem and Biol 2008): 190 nM | Kd [9]: 720 nM | Kd [10]: 200 nM | Kd (Protein PLCG1-NC, most recent PM interactions, ref Jones et al. 2006 / Kaushansky et al. Mol Biosys 2008 / Kaushansky et al. Chem and Biol 2008): 790 nM | Kd (Protein PTPN11-N, most recent PM interactions, ref Jones et al. 2006 / Kaushansky et al. Mol Biosys 2008 / Kaushansky et al. Chem and Biol 2008): 380 nM | Kd [2]: 490 nM | Kd (Protein RASA1-NC, most recent PM interactions, ref Jones et al. 2006 / Kaushansky et al. Mol Biosys 2008 / Kaushansky et al. Chem and Biol 2008): 1420 nM | Kd [12]: 1990 nM | Kd [3]: 630 nM | Kd [4]: 660 nM | Kd (Protein SHC3, most recent PM interactions, ref Jones et al. 2006 / Kaushansky et al. Mol Biosys 2008 / Kaushansky et al. Chem and Biol 2008): 220 nM | Kd (Protein SYK-C, most recent PM interactions, ref Jones et al. 2006 / Kaushansky et al. Mol Biosys 2008 / Kaushansky et al. Chem and Biol 2008): 930 nM | Kd [5]: 610 nM | Kd (Protein TNS4, most recent PM interactions, ref Jones et al. 2006 / Kaushansky et al. Mol Biosys 2008 / Kaushansky et al. Chem and Biol 2008): 920 nM | Kd (Protein VAV1, most recent PM interactions, ref Jones et al. 2006 / Kaushansky et al. Mol Biosys 2008 / Kaushansky et al. Chem and Biol 2008): 1050 nM | Kd [11]: 85 nM

NPAPSRDPHpYQDPHSTAd [ErbB1 1125]
Kd [1]: 74 nM | Kd (Protein BMX, most recent PM interactions, ref Jones et al. 2006 / Kaushansky et al. Mol Biosys 2008 / Kaushansky et al. Chem and Biol 2008): 1070 nM | Kd [16]: 1230 nM | Kd [2]: 1320 nM | Kd [12]: 990 nM | Kd [5]: 980 nM | Kd (Protein TNS1, most recent PM interactions, ref Jones et al. 2006 / Kaushansky et al. Mol Biosys 2008 / Kaushansky et al. Chem and Biol 2008): 1280 nM | Kd [13]: 380 nM

PAGSVQNPVpYHNQPLNPd [ErbB1 1110]
Kd (Protein ABL1, most recent PM interactions, ref Jones et al. 2006 / Kaushansky et al. Mol Biosys 2008 / Kaushansky et al. Chem and Biol 2008): 520 nM | Kd [1]: 60 nM | Kd [3]: 320 nM
